Laboratory results: patent US20240382499A1, “INDUCERS OF SENESCENCE, IN COMBINATION WITH A SELECTIVE DEATH RECEPTOR 5 (DR5) AGONIST, FOR USE IN A METHOD OF TREATING CANCER” (Stichting Het Nederlands Kanker Instituut-Antoni van …, priority 2021, published 2024)
Residues, ends and D or L forms follow the SMILES beside them. *: point of attachment. Cbz = O=C(OCc1ccccc1)*; CH2F = FC*

Legend:
[1] = test system: alisertib-induced senescent A549, Hep1 and MM231 cells; assay: Colony formation with IgG1-cona or IgA-cona-dim DR5 agonist antibodies; assay type: cell-based; details: side-by-side IgG1 and IgA-cona-dim forms of conatumumab
Experimental: (§1) FIG. 10: Colony formation in proliferating and alisertib-induced senescent A549 (A), Hep1 (B) and MM231 (C) cells with IgG1-cona or IgA-cona-dim DR5 agonist antibodies. Colony formation in proliferating and alisertib-induced senescent A549 cells treated with the low dose of 0.125 μg/ml IgA-cona-dim, 0.25 μM NEO2734 and 10 μM Z-VAD-FMK (D). Colony formation using low dose 0.25 μM of NEO2734 and 0.125 μg/ml IgA-cona-dim A549 cells made senescent by one-week treatment with 1 μM barasertib, 0.5 μM PF-06873600, 100 nM doxorubicin, 50 nM CFI-400945, 2 μM Etoposide or 1 μM TAS-119 (E).
Antibodies were generated by expression of SEQ 1 and SEQ 3 (IgG1-cona), SEQ 2 and SEQ 3 (IgA-cona), or SEQ 2, SEQ 3 and SEQ 4 (IgA-cona-dim) as described (Beyer et al., 2009. J Immunol Methods 346: 26-37), by employing the nucleotide sequences SEQ 5 and SEQ 6 (IgG1-cona), SEQ 6 and SEQ 7 (IgA-cona), or SEQ 6, SEQ 7 and SEQ 8 (IgA-cona-dim). SEQ 4 depicts a sequence of an immunoglobulin J chain, which links two or more IgA monomer units.

[2] = test system: proliferating and senescent A549 cells; assay: Colony formation with low dose IgA-cona-dim, NEO2734 and Z-VAD-FMK; assay type: cell-based; details: 10 μM Z-VAD-FMK; alisertib-induced senescent A549
Experimental: as §1

In the case of “IgA-cona-dim: dimeric form of IgA-conatumumab, SEQ 2, SEQ 3 and SEQ 4 (J chain)”, the “senolytic potency compared with IgG form” value [1] is reported as “most potent DR5 agonist to eliminate senescent cells”.
For `COC(=O)C[C@H](NC(=O)[C@H](C)NC(=O)[C@@H](NC(=O)OCc1ccccc1)C(C)C)C(=O)CF` [Z-VAD-FMK] (Cbz-Val-Ala-Asp(OMe)-CH2F), the “rescue from IgA-cona-dim plus NEO2734 mediated senolysis” value [2] was “fully rescue the cells from senolysis”.
